Measured values published in patent US20250228800A1, “Treatment of nasal cavity inflammation and mucus hypersecretion” (priority 2024, published 2025).
Like-named read-outs stand apart in the source and are kept apart here.

Tests used:
TRPA1 = molecular target: T1, TRPA1 (Homo sapiens, UniProt O75762); test: Bioassay in cells transfected with TRPA1, Prof. Lee laboratory, Duke University; assay type: cell-based
T1 construct: expressed in transfected cells
Excerpt: Data from the laboratory of Prof. Seok-Yong Lee's at Duke University.
Seok-Yong Lee at Duke University (FIG. 3).

tongue = test: Oral cavity screen, 15 mg of white crystals on dorsal surface of the tongue; assay type: in vivo, human
Protocol: The first screening tests conducted in this discovery to assess candidates that produce refreshing cooling in the oral cavity. Test agents, prepared as 15 mg of white crystals, were placed on the dorsal surface of the tongue. The chemical structures and identifying characteristics are in Table 1.

TRPM8 [1] = molecular target: T2, TRPM8 (Homo sapiens, UniProt Q7Z2W7); conditions: Ref#2; cited from earlier work
TRPM8 [2] = molecular target: T2, TRPM8; conditions: Ref#6; cited from earlier work
[3] = molecular target: mouse cold-menthol receptor TRPM8 (Mus musculus, UniProt Q8R4D5); conditions: Ref#1; cited from earlier work
nasal cavity = test: Study 1: NasoNeb nebulizer delivery to nasal cavity of subjects with rhinitis; assay type: in vivo, human
Protocol: Study 1. In this first study, a specialized nebulizer with an electronically controlled compressor was used to deliver FEMA 4557 to the nasal cavity of subjects with rhinitis. A typical dosage regimen was a 1.0 to 1.5% wt/vol solution (10 to 15 mg/mL) of FEMA 4557 over a 3 to 5 sec delivery period. […] No attempt was made to differentiate between delivered versus retained dose. The severity of rhinitis was quantified by gravimetric measurement of secretions and exudates from the nasal cavity (FIG. 15). Subjects were instructed to blow into a pre-weighed paper tissue and record the weight of the tissue after blowing. The tissue was inspected and marked as clear, with streaks of exudates, or dense gel. The nasal blowouts fell into three distinct categories of weights that were easy to recognize. […] The weight of the blowouts provides an objective index of nasal cavity inflammation. Nasal secretions were inhibited by topical administration of FEMA 4557, dissolved at 15 mg/ml in an ethanol, polysorbate 80, and saline mixture (FIG. 16). A Nasoneb® apparatus delivered FEMA 4557 into the nasal cavity (FIG. 13). The test substance was sprayed into the nasal cavity for 5 sec at t=0, 2, and 5 hr. The data points were fitted by linear regression (GraphPad Prism), and the 10-hr secretion was measured as ([…]). The results were vehicle 3.16±0.10 g and FEMA 4557 1.86±0.07 g, with n=6 and 5 observations per group, respectively. […] Inhibition of nasal secretions by topical administration of FEMA 4557, 15 mg/ml, delivered into the nasal cavity, is further illustrated by plotting the individual blowout units, in g per blowout FIG. 17. The test substances were sprayed into the nasal cavity for 5 sec at t=0, 2, and 5 hr. […] Thus, the anti-inflammatory effect of FEMA 4557 is further confirmed.

skin = conditions: for treatment of skin dysesthesia (insect bites, skin allergies, thermal injury): topical gel on skin
philtrum skin = test: Philtrum skin assay of cooling; assay type: in vivo, human; conditions: for Duration (min) of cooling / Comments (sensation): 8% wt/vol gel on philtrum skin
Excerpt: Wei (2012) proposed the use of the skin on the philtrum as a test site for cooling activity of chemicals. The philtrum is the midline groove above the upper lip border and vermilion and is the drug application site. The gel is placed on the philtrum with a cotton-tipped applicator up to the nasolabial folds and sometimes, but not deliberately, on the lower nostrils (subnasale). Cold receptors densely innervate the philtrum skin, second only to the surfaces of the eyeball, nasal surfaces, and anogenitalia. The lips also have a high density of “cold spots.” This is called the philtrum assay. The test substance is dissolved in a carrier, such as solvent, gel, or ointment and applied to the philtrum, a surface area of ˜10 to 12 cm2. The subject records sensations on the philtrum and environs on a scale of 0 to 3, as: 0=no changes in sensation, 1=a slight feeling of coolness, cold or tingling, 2=a clearcut feeling of coolness or cold and 3=a robust feeling of coolness and cold. The intervals for measurements are usually 0, 1, 3, 5 min after application, and at then 5 min or longer intervals thereafter until two successive zeros are obtained. Test substances are applied to the philtrum using a cotton-tipped applicator (Puritan Cotton-tipped applicators, or Q-Tips). The applicator tip is dipped into a reservoir bottle containing the liquid or semi-liquid (gel) test substance. The composition adhering to the cotton (about 0.2 mL) is put on the skin. A subject can practice the method in front of a mirror with a high-intensity light source.

TRPM8 [4] = molecular target: T2, TRPM8; conditions: Ref#3; cited from earlier work
TRPM8 [5] = molecular target: T2, TRPM8; test: Bioassay of FEMA 4557 (BUDA) on TRPM8, Prof. Lee laboratory, Duke University; assay type: cell-based

T2 sequence (Q7Z2W7 whole entry, species assumed): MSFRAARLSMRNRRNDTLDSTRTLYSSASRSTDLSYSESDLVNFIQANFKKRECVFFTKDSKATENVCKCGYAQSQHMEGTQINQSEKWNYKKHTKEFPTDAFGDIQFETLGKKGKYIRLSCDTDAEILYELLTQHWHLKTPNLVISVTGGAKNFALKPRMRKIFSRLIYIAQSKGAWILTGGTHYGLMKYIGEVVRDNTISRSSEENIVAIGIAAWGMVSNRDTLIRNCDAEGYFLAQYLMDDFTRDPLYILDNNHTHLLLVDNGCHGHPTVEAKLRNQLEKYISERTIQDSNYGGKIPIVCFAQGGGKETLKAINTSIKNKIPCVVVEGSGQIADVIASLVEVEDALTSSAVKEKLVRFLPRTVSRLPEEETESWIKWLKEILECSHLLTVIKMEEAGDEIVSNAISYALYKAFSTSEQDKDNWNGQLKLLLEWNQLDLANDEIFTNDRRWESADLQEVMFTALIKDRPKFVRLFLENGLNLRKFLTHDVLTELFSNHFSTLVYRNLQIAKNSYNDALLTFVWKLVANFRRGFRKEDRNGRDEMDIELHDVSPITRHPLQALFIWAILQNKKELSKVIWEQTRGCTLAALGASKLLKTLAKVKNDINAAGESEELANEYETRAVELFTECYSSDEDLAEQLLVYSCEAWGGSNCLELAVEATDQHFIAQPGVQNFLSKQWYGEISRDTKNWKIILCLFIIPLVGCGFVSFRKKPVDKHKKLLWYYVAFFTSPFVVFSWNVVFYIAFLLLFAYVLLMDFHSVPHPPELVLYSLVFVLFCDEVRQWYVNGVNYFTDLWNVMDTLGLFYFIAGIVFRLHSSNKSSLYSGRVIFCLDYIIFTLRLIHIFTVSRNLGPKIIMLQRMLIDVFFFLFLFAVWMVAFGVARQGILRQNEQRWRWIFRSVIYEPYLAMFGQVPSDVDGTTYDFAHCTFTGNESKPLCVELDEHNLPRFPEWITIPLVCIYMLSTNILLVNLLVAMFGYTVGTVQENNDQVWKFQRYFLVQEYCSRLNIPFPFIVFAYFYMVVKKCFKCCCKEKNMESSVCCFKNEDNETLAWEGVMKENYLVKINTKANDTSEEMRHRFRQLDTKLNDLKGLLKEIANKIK
T1 sequence (O75762 whole entry, species assumed): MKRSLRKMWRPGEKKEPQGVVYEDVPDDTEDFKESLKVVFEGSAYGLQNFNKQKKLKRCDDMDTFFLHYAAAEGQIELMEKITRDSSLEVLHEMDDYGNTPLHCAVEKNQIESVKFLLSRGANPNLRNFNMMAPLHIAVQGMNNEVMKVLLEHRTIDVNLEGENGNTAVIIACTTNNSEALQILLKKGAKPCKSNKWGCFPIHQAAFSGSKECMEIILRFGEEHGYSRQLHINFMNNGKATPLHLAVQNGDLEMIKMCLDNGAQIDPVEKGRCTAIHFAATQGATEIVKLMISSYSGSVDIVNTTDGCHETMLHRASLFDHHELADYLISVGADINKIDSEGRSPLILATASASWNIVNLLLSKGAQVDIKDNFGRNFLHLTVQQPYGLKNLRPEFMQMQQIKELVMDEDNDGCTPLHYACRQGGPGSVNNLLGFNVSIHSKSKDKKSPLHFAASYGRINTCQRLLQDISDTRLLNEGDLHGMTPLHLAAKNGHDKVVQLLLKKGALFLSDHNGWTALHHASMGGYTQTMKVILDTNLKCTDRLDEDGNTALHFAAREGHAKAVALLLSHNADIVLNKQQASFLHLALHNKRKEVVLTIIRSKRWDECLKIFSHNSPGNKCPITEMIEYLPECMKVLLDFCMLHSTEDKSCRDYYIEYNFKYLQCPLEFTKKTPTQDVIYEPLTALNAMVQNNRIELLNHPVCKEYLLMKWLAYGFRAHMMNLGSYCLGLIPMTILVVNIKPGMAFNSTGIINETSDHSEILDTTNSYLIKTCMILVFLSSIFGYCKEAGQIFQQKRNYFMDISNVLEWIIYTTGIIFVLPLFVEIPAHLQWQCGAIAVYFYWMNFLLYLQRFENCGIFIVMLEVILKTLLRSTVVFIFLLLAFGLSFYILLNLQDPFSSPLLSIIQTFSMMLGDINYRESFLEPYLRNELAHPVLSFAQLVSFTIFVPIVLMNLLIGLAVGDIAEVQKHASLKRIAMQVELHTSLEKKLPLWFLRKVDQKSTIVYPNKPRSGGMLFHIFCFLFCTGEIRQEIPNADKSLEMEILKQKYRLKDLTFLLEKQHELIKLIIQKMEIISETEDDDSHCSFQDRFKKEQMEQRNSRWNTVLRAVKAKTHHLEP
mouse cold-menthol receptor TRPM8, sequence (Q8R4D5 whole entry): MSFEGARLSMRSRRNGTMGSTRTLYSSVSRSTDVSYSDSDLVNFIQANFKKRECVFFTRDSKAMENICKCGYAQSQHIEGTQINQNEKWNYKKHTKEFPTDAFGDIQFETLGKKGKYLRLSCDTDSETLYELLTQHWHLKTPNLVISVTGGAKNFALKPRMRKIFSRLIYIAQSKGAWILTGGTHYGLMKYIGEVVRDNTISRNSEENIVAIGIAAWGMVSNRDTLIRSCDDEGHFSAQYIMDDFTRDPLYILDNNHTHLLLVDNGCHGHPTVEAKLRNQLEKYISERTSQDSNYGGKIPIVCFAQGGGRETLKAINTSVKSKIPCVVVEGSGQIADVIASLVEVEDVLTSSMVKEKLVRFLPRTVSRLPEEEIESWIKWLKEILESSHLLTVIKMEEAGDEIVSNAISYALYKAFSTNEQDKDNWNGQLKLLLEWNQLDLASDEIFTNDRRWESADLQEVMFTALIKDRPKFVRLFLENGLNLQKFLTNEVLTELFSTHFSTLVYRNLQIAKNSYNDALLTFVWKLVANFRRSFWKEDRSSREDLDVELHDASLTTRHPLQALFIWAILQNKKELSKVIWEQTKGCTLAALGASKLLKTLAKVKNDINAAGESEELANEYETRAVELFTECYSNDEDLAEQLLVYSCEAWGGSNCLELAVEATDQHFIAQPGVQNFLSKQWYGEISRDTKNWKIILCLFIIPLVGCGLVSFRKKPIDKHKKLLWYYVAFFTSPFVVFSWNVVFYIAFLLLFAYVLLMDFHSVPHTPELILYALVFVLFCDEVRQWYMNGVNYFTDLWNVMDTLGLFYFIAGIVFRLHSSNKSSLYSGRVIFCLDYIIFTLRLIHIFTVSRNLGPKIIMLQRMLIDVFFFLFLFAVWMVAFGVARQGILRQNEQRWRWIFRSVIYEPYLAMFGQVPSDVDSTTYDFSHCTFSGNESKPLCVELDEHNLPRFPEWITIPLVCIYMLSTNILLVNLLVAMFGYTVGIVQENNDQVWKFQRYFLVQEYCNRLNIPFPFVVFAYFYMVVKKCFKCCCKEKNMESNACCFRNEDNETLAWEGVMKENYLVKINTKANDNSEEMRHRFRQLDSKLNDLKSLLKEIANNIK

SMILES: C=CCN=C=S [AITC, allyl isothiocyanate]
- activity on TRPA1 (TRPA1): active

SMILES: CC(C)OC(=O)CNC(=O)[C@@H]1C[C@H](C)CC[C@H]1C(C)C [Ax-8, p-Menthane-Gly- OiPr]
- Effects of 15 mg on tongue (duration) (tongue): ~27 min
- Effects of 15 mg on tongue (sensation) (tongue): pleasant cooling in oral cavity

SMILES: CCOC(=O)[C@@H](C)NC(=O)[C@@H]1C[C@H](C)CC[C@H]1C(C)C [CPS-369]
- EC50 (TRPM8 [1]): 3.6 µM
- EC50 (TRPM8 [2]): 65 µM

SMILES: CC(C)[C@@H]1CC[C@@H](C)C[C@H]1OCC(O)CO (some centres unmarked) [Cool 10, menthoxypropanediol]
- EC50 [3]: 6 µM

SMILES: CCCCCCCP(=O)(C(C)C)C(C)C [Cryosim-1, 1-diisopropyl-phosphorylheptane]
- Effects of 15 mg on tongue (sensation) (tongue): stinging, painful cold

SMILES: CCNC(=O)C(CC)(C(C)C)C(C)C [FEMA 4557, N-ethyl-2,2-diisopropyl butanamide]
- 10-hr nasal secretion (avg.±s.e.m) (nasal cavity; 15 mg/mL, 5 sec at t=0, 2 and 5 hr, NasoNeb, n=5, vehicle 3.16±0.10 g): 1.86±0.07 g
- individual nasal blowouts (average±s.e.m.) (nasal cavity; 15 mg/mL, 5 sec at t=0, 2 and 5 hr, NasoNeb, n=56, vehicle 0.38±0.03 g): 0.21 ± 0.03 g
- concentration that stops stuffiness of rhinitis and inhibits phlegm secretion (nasal cavity; applied to inflamed nasal membranes): ≤ 1.5 % wt/vol
- onset of beneficial effects after delivery (nasal cavity; topical nasal delivery): ≤ 15 min
- tissue irritation or inflammation on skin (skin; human, in vivo): no tissue irritation or inflammation appeared on the skin
- duration of stopping irritation of an insect sting (skin; topical gel 8 to 16% wt/vol): ≥ 3 h
- onset of stopping irritation of an insect sting (skin; topical gel 8 to 16% wt/vol): less than 3 minutes
- topical concentration with anti-inflammatory activity on skin (skin; total dose of several mg): ≥ 5 % wt/vol
- average time of cooling (philtrum skin; 2% concentration): 50 min
- average time of cooling (philtrum skin; 4% concentration): 95 min
- average time of cooling (philtrum skin; 8% concentration): ≥ 175 min
- duration of cooling (philtrum skin; 8% gel, FIG. 4): ~3 h
- Duration (min) of cooling (philtrum skin): 180+ min
- irritation of the skin (philtrum skin; concentrations of up to 12% weight/volume on philtrum skin): no irritation of the skin was observed with FEMA
- Effects of 15 mg on tongue (duration) (tongue): > 35 min
- EC50 (TRPM8 [4]): 1.6 µM
- EC50 relative to that of l-menthol (TRPM8 [5]): about 1/30
- activity on TRPA1 (TRPA1): not active

SMILES: CCNC(=O)[C@@H]1C[C@H](C)CC[C@H]1C(C)C [WS-3]
- Effects of 15 mg on tongue (duration) (tongue): ~8 min
- Effects of 15 mg on tongue (sensation) (tongue): pleasant cooling in oral cavity
- EC50 (TRPM8 [4]): 5.9 µM
- EC50 (TRPM8 [2]): 210 µM

SMILES: CCOC(=O)CNC(=O)[C@@H]1C[C@H](C)CC[C@H]1C(C)C [WS-5]
- treatment of skin dysesthesia (insect bites, skin allergies, thermal injury) (skin): ineffective
- Comments (sensation) (philtrum skin): pleasant cool sensations of skin
- Duration (min) of cooling (philtrum skin): 51 ± 4 min
- Effects of 15 mg on tongue (duration) (tongue): ~12 min
- Effects of 15 mg on tongue (sensation) (tongue): pleasant cooling in oral cavity
- EC50 (TRPM8 [4]): 0.5 µM
- EC50 (TRPM8 [2]): 26 µM

SMILES: COc1ccc(NC(=O)[C@@H]2C[C@H](C)CC[C@H]2C(C)C)cc1 [WS-12]
- treatment of skin dysesthesia (insect bites, skin allergies, thermal injury) (skin): ineffective
- Comments (sensation) (philtrum skin): pleasant cool sensations on skin
- Duration (min) of cooling (philtrum skin): 38 ± 4 min
- Effects of 15 mg on tongue (duration) (tongue): ~20 min
- Effects of 15 mg on tongue (sensation) (tongue): pleasant cooling in oral cavity
- EC50 (TRPM8 [4]): 22.1 µM
- EC50 (TRPM8 [1]): 0.2 µM

SMILES: CNC(=O)C(C)(C(C)C)C(C)C [WS-23]
- treatment of skin dysesthesia (insect bites, skin allergies, thermal injury) (skin): ineffective
- Comments (sensation) (philtrum skin): short duration of action, no overt cold, but more
- Duration (min) of cooling (philtrum skin): 25 ± 3 min
- Effects of 15 mg on tongue (duration) (tongue): too short-lived
- Effects of 15 mg on tongue (sensation) (tongue): painful cold in throat
- Effects of 15 mg on tongue (duration) (tongue; listed as 3804): ~18 min
- EC50 (TRPM8 [4]): 2.2 µM
- EC50 (TRPM8 [2]): 1500 µM

SMILES: CC1CCC(C(C)C)C(C(=O)OCC(O)CO)C1 (centres unmarked) [WS-30]
- EC50 (TRPM8 [1]): 5.6 µM

SMILES: O=C1NC(c2cccc([N+](=O)[O-])c2)=CCN1c1ccccc1O [icilin]
- EC50 (TRPM8 [2]): 7 µM
